One compound from patent US20140093573A1, “NON-ENTERIC COATED PHARMACEUTICAL COMPOSITION AND USE THEREOF” (NATIONAL TAIWAN UNIVERSITY, priority 2012, published 2014) can be followed below.

For this test, the system named is Caco-2 cells. Briefly: Cellular uptake study (flow cytometry, confocal microscopy). The format is cell-based, Human. Particulars: Caco-2 monolayer, 0.5 h incubation, 200 ng/mL coumarin-6 equivalent. The protocol:
Caco-2 cell monolayers approximately 21-24 days post seeding were used for the cellular uptake study. Before the experiments, the monolayers were washed with HBSS (pH 7.4) twice and then preincubated with HBSS at 37° C. for 30 min. The HBSS (control), free coumarin-6 solution (200 ng/mL), ERSNPs-C6 or PLGANPs-C6 suspension in HBSS equivalent to 200 ng/mL of coumarin-6 were added in the donor compartment while 3 mL of HBSS was added in the receiver compartment. These Caco-2 cell monolayers were incubated for 0.5 h and 1 h at 37° C. in an atmosphere of 5% CO2 and 90% relative humidity. The flow cytometry and confocal microscopy were used to assess the intracellular fluorescence. After 0.5 h and 1 h of incubation, the cell monolayers were washed with phosphate buffered saline (PBS, pH 7.4) three times following by trypsinization for 5 min (100 μL, 0.25% trypsin EDTA). Trypsinization was stopped by adding 1 mL of cold PBS. Cells were detached from the inserts by pipetting and centrifuged at 1000 rpm for 5 min The cells were resuspended in 2 mL PBS and analyzed by using fluorescent activated flow cytometry (BD FACS Calibur) and BD CellQuest software (BD Biosciences, NJ, USA). This experiment was performed in triplicate.
For confocal microscopic study, after 0.5 hours of incubation at 37° C., cell monolayer was washed with PBS three times. […]
A general note: A flow cytometer gives signals particle by particle.

`CCN(CC)c1ccc2cc(-c3nc4ccccc4s3)c(=O)oc2c1` [coumarin-6, Coumarin-6]: the “cellular uptake efficiency (fluorescence intensity of cells)” value was found to be 1.27±0.3%.
